Earlier results as cited in patent US9173403B2, “Parasiticidal compositions comprising multiple active agents, methods and uses thereof” (MERIAL, INC., priority 2010, dated 2015).

Conditions: beagle dogs; spot-on administration; 14C radiolabeled drug

Question: For `N#Cc1nn(-c2c(Cl)cc(C(F)(F)F)cc2Cl)c(N)c1[S+]([O-])C(F)(F)F` (stereo not shown) [fipronil, 5-amino-3-cyano-1-(2,6-dichloro-4-trifluoromethylphenyl)-4-trifluoromethylsulfinylpyrazole], which “time persistently detected in the whole skin after treatment” value is on record?
Answer: up to 56 days
